“And” between values parts separate entries of the source, which are not always exact repeats. Equal entries are not always repeated.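 Values below derive from 48-hour exposures of cells grown in 96-well plates, with endpoints linearly interpolated between the two concentrations bracketing the appropriate inhibition level. Here, GI50 denotes the concentration required for 50% inhibition of growth. TGI: concentration producing complete growth inhibition.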
Assays:
Assay in all cases: DTP human tumour cell line panel, 48 h
EKVX NSCLC = test system: EKVX NSCLC
KM12 colon = test system: KM12 colon
M14 melanoma = test system: M14 melanoma
MCF7 breast = test system: MCF7 breast
NCI-H460 lung = test system: NCI-H460 lung
NCI-H522 lung = test system: NCI-H522 lung
OVCAR-8 ovarian = test system: OVCAR-8 ovarian
SF-295 CNS = test system: SF-295 CNS
SF-539 CNS = test system: SF-539 CNS
SK-MEL-5 melanoma = test system: SK-MEL-5 melanoma

SMILES	GI50 (EKVX NSCLC) [µM]	TGI (EKVX NSCLC) [µM]	GI50 (KM12 colon) [µM]	TGI (KM12 colon)	GI50 (M14 melanoma) [µM]	TGI (M14 melanoma)	GI50 (MCF7 breast) [µM]	TGI (MCF7 breast)	GI50 (NCI-H460 lung) [µM]	TGI (NCI-H460 lung) [µM]	GI50 (NCI-H522 lung) [µM]	TGI (NCI-H522 lung)	GI50 (OVCAR-8 ovarian) [µM]	TGI (OVCAR-8 ovarian) [µM]	GI50 (SF-295 CNS) [µM]	TGI (SF-295 CNS)	GI50 (SF-539 CNS) [µM]	TGI (SF-539 CNS)	GI50 (SK-MEL-5 melanoma) [µM]	TGI (SK-MEL-5 melanoma)
O=C1OCC2=C1C(c1ccc(Cl)c(Cl)c1)c1cc3c(cc1N2CCO)CCC3 (stereo unspecified)	0.435	15.6	0.181	6.57 µM	0.2	6.53 µM	0.157	7.2 µM	0.186	6.03	0.11	0.371 µM	0.221	8.27	0.108	1.5 µM	0.147	3.32 µM	0.181	7.22 µM
COc1cc2c(cc1Nc1nc(Nc3cccc(F)c3C(N)=O)c3cc[nH]c3n1)N(C(=O)CN1CCN(C(C)C)CC1)CC2	3.08	7.13	3.82	7.31 µM	3.99	7.54 µM	0.683	4.32 µM	3.36	7	3.89	7.69 µM	4.54	10.2	4.32	9.26 µM	3.74	7.7 µM	1.26	2.56 µM
O=C(Nc1ccccc1)c1cc(S(=O)(=O)Nc2nc3ccccc3o2)c(SCc2ccccc2)cc1Cl	15.3	31.3	16.7	32.6 µM	20.6	38.6 µM	28.4	80.6 µM	20.8	77	25.2	65 µM	24.5	65	18.5	33 µM	15.8	31.1 µM	14.1	28 µM
O=S(=O)(/N=c1/scc(-c2ccccc2)n1-c1ccccc1)c1ccc(N2N=C3c4ccccc4CC3C2c2cccs2)cc1 (stereo unspecified)	35.5	> 100	32.1	> 100 µM	81.5	> 100 µM	29.1	> 100 µM	95.1	> 100	61.9	> 100 µM	47.2	> 100	54.5	> 100 µM	> 100	> 100 µM	48	> 100 µM
Cc1c(O)c2c(c(O)c1Br)C(=O)C=CC2=O		5.21	3.55	3.14 µM and 13.3 µM	1.01	1.11 µM and 2.28 µM	0.41	0.399 µM and 1.54 µM		2.74	0.179	0.337 µM and 0.365 µM		2.74	14	3.15 µM and 28.2 µM	1.68	1.66 µM and 3.1 µM		0.974 µM and 1.78 µM
CC(=O)OC1CC2C3CCC4C[C@@H](NC(=O)C=C(C)C)CC[C@]4(C)C3CC[C@]2(C)[C@H]1C(C)N(C)C (stereo partly specified)	2.25	11.3	2.55	10.4 µM	1.6	3.39 µM	1.71	5.84 µM	0.885	2.65	2.78	11.4 µM	4.87	> 31.5	2.11	4.75 µM	1.27	2.62 µM	1.37	2.71 µM
O=C(Nc1n[nH]c2nnc(-c3cccnc3)cc12)C1CC1	> 20.9	> 25	5.22	> 20.1 µM	> 16.1	> 25 µM	1.07	> 25 µM	8.13	> 25	> 5.13	> 25 µM	7.65	> 25	0.338	> 7.49 µM	2.79	> 20.8 µM	4.61	> 25 µM
N#C[Se]CCCNS(=O)(=O)C1CC2C=CC1C2 (stereo unspecified)	0.491	1.84	1.4	6.43 µM	0.231	0.655 µM	0.588	5.55 µM	0.316	1.27	1.78	4.2 µM	0.511	5.06	1.01	2.43 µM	0.413	1.56 µM	1.41	2.95 µM
O=C(c1ccco1)c1c(C(F)(F)F)n([O-])c2ccc(Cl)cc2[n+]1=O	0.561	2.12	1.93	4.13 µM	0.374	1.67 µM	0.443		0.547		1.4		0.799	2.1	1.79	7.05 µM	0.37	0.924 µM	0.538	1.64 µM
c1ccc2cc(C[n+]3ccn(CCCCCCCCCCn4cc[n+](Cc5ccc6ccccc6c5)c4)c3)ccc2c1	0.442	9.07	0.727	2.73 µM	2.76	15.7 µM	0.554	2.3 µM	0.376	10.1	0.436	1.94 µM	2.18	13.1	0.554	5.44 µM	1.19	6.54 µM		
Clc1ccc(OCc2nnc3n2N=C(c2ccc(Cl)cc2Cl)CS3)cc1	20.5	52.9	20.9	54.4 µM	16.4	36.3 µM	27.8	69.2 µM	17.2	51	19.2	38.7 µM	25.4	52.7	13.7	44.2 µM	17.4	34.6 µM	16.4	31.9 µM
CC1(C)[C@@H](OC(=O)CCC(=O)O)CC[C@]2(C)[C@H]3C(=O)C=C4[C@@H]5C[C@@](C)(C(=O)O)CC[C@]5(C)CC[C@@]4(C)[C@]3(C)CC[C@@H]12	52.9	84.8	54.9	84.1 µM	58.4	129 µM	54.7	136 µM	52.6	76	51.1	80.7 µM	59.1	154	48.7	65 µM	53.1	76.7 µM	56	86.8 µM

From PubChem BioAssay (NCI)
